Source: US12383535B2, “Hydrogen peroxide-responsive KEAP1-NRF2 ppi inhibitor prodrug, and preparation method therefor” (CHINA PHARMACEUTICAL UNIVERSITY, priority 2019, dated 2025)

Legend:
[1] = Drug release rate by HPLC (H2O2 activation of prodrug); format: physicochemical; settings: in the presence of H2O2, 12 h, UPLC/HRMS
Experimental: The target compound was dissolved in DMSO to give a 10 mM stock solution, which was then stored at −20° C. The final concentration was brought to 50 μM by adding the target compound (10 mM) to phosphate buffered saline (PBS) (10 mM, pH 7.4), and H2O2 was added. The solution was well vortexed, and then incubated at 37° C. Samples were taken at appropriate time intervals and analyzed by HPLC directly after injection, and the peak areas were recorded to calculate the percentage of the compound. The procedure was repeated three times. The following Agilent 1260 HPLC and DAD detectors were used: Agilent C18 column (4.6×150 mm, 3.5 μm); mobile phase: 70% methanol; flow rate: 0.5 mL/min. A standard curve of the compound was plotted against concentration.
After treatment with 10 mM H2O2, the prodrug pro2 was activated with prolonged incubation time and the active parent compound 2 was completely released within 3 h (HPLC-determined conversion >98%, (B) of FIG. 1 and (C) of FIG. 1).

[2] = Parallel artificial membrane permeability assay (PAMPA); format: in vitro ADME
Experimental: Potential solubility data were obtained with a pSOL model 3 instrument (pION INC, Cambridge, Massachusetts, USA). Cell membrane permeability was determined on a PAMPA Explorer instrument (pION).
Subsequently, the permeability of cell membranes was measured by standard parallel artificial membrane permeability assay (PAMPA).

[3] = tested on: Nrf2-ARE in RAW264.7 cells; assay: ARE inductivity under LPS stimulation; format: cell-based, mouse; settings: Mus musculus, RAW264.7, read-out: EC50 of ARE inductivity
RAW264.7 cells = assay: IL-1β, IL-6, TNF-α and NO assays in cell culture supernatant; format: cell-based, mouse; settings: Mus musculus, RAW264.7, read-out: EC50 for reduction of extracellular NO concentration
Experimental: IL-1β (IL-1β (m) ELISA kit, EK0394, Boster), IL-18 (IL-18 (m) ELISA kit, EMC011, NeoBioscience), IL-6 (IL-6 (m) ELISA kit EK0411, Boster), TNF-α (TNF-α (m) ELISA kit, EK0527, Boster) and NO (nitrate/nitrite assay kit, S0023, Beyotime, China) were tested using commercially available kits according to the manufacturer's instructions.
Then, several inflammatory mediators closely related to ROS, including IL-1β, IL-6, TNF-α and NO, were further evaluated.

SMILES	production of the active parent compound 1 [1]	Pe at pH 7.4 [2]	Papp ([2]; pH 7.4, read-out: Pe at pH 7.4) [×10⁻⁶ cm/s]	EC50 [3] [µM]	EC50 (RAW264.7 cells) [µM]
COc1ccc(S(=O)(=O)N(CC(=O)N2CCSC2=O)c2ccc(N(CC(=O)N3CCSC3=O)S(=O)(=O)c3ccc(OC)cc3)c3ccccc23)cc1 [pro1, N,N′-(naphthalene-1,4-diyl)bis(4-methoxy-N-(2-oxo-2-(2-oxothiazolidin-3-yl)ethyl)benzenesulfonamide)]	no production of the active parent compound 1 could be observed				
COc1ccc(S(=O)(=O)Nc2ccc(N(CC(=O)O)S(=O)(=O)c3ccc(OC)cc3)c3ccccc23)cc1 [Compound 2, N-(4-((4-methoxyphenyl)sulfonamido)naphthalen-1-yl)-N-((4-methoxyphenyl)sulfonyl)glycine]		0.80 10^−6 cm/s	0.8	> 4.52	> 0.12
